According to PubChem BioAssay (NCI):
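These data come from cells grown in 96-well plates and exposed to compound for 48 hours at five concentrations. GI50 = concentration required for 50% inhibition of growth. TGI marks complete inhibition of growth.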

Experiments:
Experiment in all cases: growth of human tumour cells (NCI), 48 h
KM12 colon = tested on: KM12 colon
MOLT-4 leukemia = tested on: MOLT-4 leukemia
NCI-H226 lung = tested on: NCI-H226 lung
NCI-H460 lung = tested on: NCI-H460 lung
OVCAR-3 ovarian = tested on: OVCAR-3 ovarian
OVCAR-4 ovarian = tested on: OVCAR-4 ovarian
SK-OV-3 ovarian = tested on: SK-OV-3 ovarian
UACC-62 melanoma = tested on: UACC-62 melanoma
CCRF-CEM leukemia = tested on: CCRF-CEM leukemia
MDA-MB-435 = tested on: MDA-MB-435

Row | Structure (SMILES) | GI50 (KM12 colon) [µM] | TGI (KM12 colon) [µM] | GI50 (MOLT-4 leukemia) [µM] | TGI (MOLT-4 leukemia) [µM] | GI50 (NCI-H226 lung) [µM] | TGI (NCI-H226 lung) [µM] | GI50 (NCI-H460 lung) [µM] | TGI (NCI-H460 lung) [µM] | GI50 (OVCAR-3 ovarian) [µM] | TGI (OVCAR-3 ovarian) [µM] | GI50 (OVCAR-4 ovarian) [µM] | TGI (OVCAR-4 ovarian) [µM] | GI50 (SK-OV-3 ovarian) [µM] | TGI (SK-OV-3 ovarian) [µM] | GI50 (UACC-62 melanoma) [µM] | TGI (UACC-62 melanoma) [µM] | GI50 (CCRF-CEM leukemia) [µM] | TGI (CCRF-CEM leukemia) [µM] | GI50 (MDA-MB-435) [µM] | TGI (MDA-MB-435) [µM]
1 | CCN(CC)c1ccc(/C=C/C=C2\NC(=O)NC2=O)cc1 | 1.85 | 21.3 | 6.49 | > 100 | 15 | > 100 | 3.03 | 16.1 | 1.95 | 5.29 | 9.01 | > 100 | 7.6 | > 100 | 3.95 | > 100 | – | – | – | –
2 | O=C(CCc1ccc(O)cc1)N/N=C/c1cc(Br)ccc1O | 3.36 | 31.5 | 2.41 | 11.2 | – | – | 2.93 | 14.2 | 4.03 | 23.6 | 3.19 | 82 | 6.35 | > 100 | 2.44 | 7.02 | 2.5 | 12.6 | 6.31 | > 100
3 | O=C(CCCCC(=O)N/N=C\c1ccccc1O)N/N=C\c1ccccc1O | – | – | 3.01 | > 100 | 3.12 | > 100 | 3.14 | > 100 | 3.87 | > 100 | 1.73 | > 100 | 5.63 | > 100 | 2.5 | > 100 | 1.29 | > 100 | – | –
4 | CC(=O)[O-].O=C([CH-]C(=O)c1ccccc1)c1ccccc1.O=C([CH-]C(=O)c1ccccc1)c1ccccc1.[Sm+3] | 1.63 | 21.2 | 2.41 | 21.2 | 1.52 | 9.69 | 2.54 | 82.6 | 2.62 | 13.3 | 4.81 | 62.6 | 6.18 | 37.4 | 3.73 | 19.8 | – | – | – | –
5 | Cn1cccc1/C=C/c1cc(Br)c(/C=C/c2cccn2C)cc1Br | – | 21.7 | – | 43.2 | – | 39.5 | – | 45.9 | – | 33.6 | – | 20.2 | – | 30.3 | – | 43.1 | – | 62.2 | – | –
6 | Cc1ccc([C@]2(C)CC[C@H](C)/C2=C\Br)c(O)c1 | 3.55 | 13.7 | 4.17 | 16.8 | – | – | 4.23 | 16.5 | 3.23 | 12.2 | 3.42 | 14 | 2.45 | 7.03 | 3.71 | 14.1 | 6.77 | 35.6 | 1.86 | 4.82
7 | Cc1ccc(C(=O)CC2=Nc3nnc(CCCCCCCc4nnc5n4C(=O)C(CC(=O)c4ccc(C)cc4)=N5)n3C2=O)cc1 | – | > 100 | – | > 100 | – | > 100 | – | > 100 | – | > 100 | – | > 100 | – | > 100 | – | > 100 | – | > 100 | – | –
8 | CC1(C)CC(N(C(=O)/C=C/c2ccc([N+](=O)[O-])o2)C2CCCCC2)CC(C)(C)N1 | – | 22.5 | – | 18.2 | – | – | – | 13.9 | – | 25.2 | – | 22.2 | – | 43.6 | – | 21.6 | – | 13.3 | – | –
9 | CC(C)=CC(=O)Cc1nc2ccc([N+](=O)[O-])cc2[nH]c1=O | – | – | – | > 100 | – | > 100 | – | > 100 | – | > 100 | – | > 100 | – | > 100 | – | > 100 | – | – | – | –
10 | C=CC1=C(C)C2=NC1=CC1=NC(=C(CC)/C1=C\O)C=C1N=C3C(=C1C)C(=O)[C@H](C(=O)OC)C3=C1NC(=C2)[C@@H](C)[C@@H]1CCC(=O)O | – | > 100 | – | > 100 | – | > 100 | – | > 100 | – | – | – | > 100 | – | > 100 | – | > 100 | – | > 100 | – | > 100
11 | COc1cc(NC(=O)C2=C(N3CCOCC3)/C(=C/c3ccc(Cl)cc3)CC2)cc(OC)c1OC | > 100 | > 100 | > 100 | > 100 | 34.3 | > 100 | > 100 | > 100 | 24.9 | > 100 | 4.27 | > 100 | 21.7 | 62.8 | > 100 | > 100 | – | – | > 100 | > 100
12 | COC(=O)c1nn(C(=N)c2ccc(Cl)cc2)c2c1CCC2 | – | > 100 | – | > 100 | – | > 100 | – | > 100 | – | – | – | > 100 | – | > 100 | – | > 100 | – | > 100 | – | –
13 | Brc1cc2c(cc1Br)CN(c1ccccc1)C2 | – | > 100 | – | > 100 | – | > 100 | – | > 100 | – | > 100 | – | > 100 | – | > 100 | – | > 100 | – | > 100 | – | –
14 | O=NN(CCCl)C(=O)NC1CCC(CC2CCC(NC(=O)N(CCCl)N=O)CC2)CC1 (configuration not stated) | – | > 100 | – | 47.8 | – | > 100 | – | > 100 | – | > 67.4 | – | > 100 | – | > 86.4 | – | – | – | 50.7 | – | –
15 | COc1cc2c3c(n(C)c(=O)c2cc1OC)-c1cc2c(cc1/C3=C\CCNCCCN)OCO2 | 1.41 | 10.5 | 0.364 | 44.4 | 0.987 | 5.02 | 0.853 | 20.3 | – | – | 1.04 | 7.56 | 2.73 | 11.7 | – | – | 0.686 | 13.4 | 2.48 | 15.9
16 | Oc1c(CN2CCN(c3ccccc3)CC2)cc(Br)c2cccnc12 | – | > 100 | – | 6.15 | – | – | – | – | – | > 79.5 | – | > 100 | – | 26.8 | – | – | – | > 100 | – | > 100
17 | CN(C)C(=O)Oc1c(-c2ccccc2)c(=O)n2c3ccccc3n3c(=O)n(C)c(=O)c1c23 | – | – | – | > 100 | – | – | – | > 100 | – | > 100 | – | > 100 | – | > 100 | – | > 100 | – | – | – | –
18 | C[C@]12CCC(=O)C=C1CC[C@@H]1C2CC[C@]2(C)c3nn(-c4ccccc4)nc3CC12 (some centres not stated) | – | > 100 | – | > 100 | – | > 100 | – | > 100 | – | > 100 | – | > 100 | – | > 100 | – | > 100 | – | > 100 | – | –
